Measured values taken from PubChem BioAssay (NCI).
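Growth conditions: 96-well plates. Treatment: test compound, 48 hours, 5 concentrations. Analysis: linear interpolation between bracketing concentrations; unreached endpoints set to highest concentration. Definition used: TGI = concentration required for complete inhibition of growth.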

What was measured:
Assay in all cases: NCI-60 cell line screen, 48 h
CAKI-1 renal = tested on: CAKI-1 renal
HCC-2998 colon = tested on: HCC-2998 colon
HL-60(TB) leukemia = tested on: HL-60(TB) leukemia
HS 578T breast = tested on: HS 578T breast
MDA-N = tested on: MDA-N
MOLT-4 leukemia = tested on: MOLT-4 leukemia
SNB-19 CNS = tested on: SNB-19 CNS
DU-145 prostate = tested on: DU-145 prostate

SMILES | TGI (CAKI-1 renal) [µM] | TGI (HCC-2998 colon) [µM] | TGI (HL-60(TB) leukemia) [µM] | TGI (HS 578T breast) [µM] | TGI (MDA-N) [µM] | TGI (MOLT-4 leukemia) [µM] | TGI (SNB-19 CNS) [µM] | TGI (DU-145 prostate) [µM]
CCOC(=O)/C1=C(\C)N(Cc2ccccc2)C(=O)c2ccccc2C(=O)c2c(OC(C)=O)ccc(OC(C)=O)c21 | > 100 | 37.4 | 79.1 | > 100 | > 100 | > 100 | > 100 | –
CCOC(=O)CCCc1cc(=O)c2c(C)c3[nH]c4ccc(Cl)cc4c3c(C)c2[nH]1 | 43.2 | > 100 | 82.3 | – | > 100 | > 100 | 60.7 | 57.2
O=S(=O)(N=[Se](=O)(c1ccccc1)c1ccccc1)c1ccccc1 | > 100 | > 100 | 88.1 | > 100 | > 100 | > 100 | > 100 | –
C[Si](C)(C)CCOCN(C(=O)C1=CCC2(CC1)OCCO2)c1ccccc1I | 55.7 | 50.5 | – | 44.6 | 59.1 | 98.7 | 37.7 | > 100
C#CCNCC(=O)O | > 100 | > 100 | – | > 100 | > 100 | > 100 | > 100 | > 100
CC(=O)O[C@H]1[C@@H](OC2CCCC2(c2ccccc2)c2ccccc2)O[N+]([O-])=C[C@@H]1c1ccccc1 (some centres undefined) | 11 | 27.2 | 5.71 | 20.5 | 15.6 | 7.54 | 29.7 | 23.7
COC(=O)c1ccccc1/C=C1\Cc2ccc3c(c2C1=O)CCC3 | > 100 | > 100 | > 100 | > 100 | > 100 | > 100 | – | > 100
CN1C(=O)C(O)CC1c1ccccc1F (centres undefined) | > 100 | > 100 | > 100 | – | > 100 | > 100 | > 100 | > 100
CCc1n[nH]c(=O)n1-n1c(C)ccc1C | > 100 | > 100 | – | > 100 | > 100 | > 100 | > 100 | > 100
S=c1[nH]nc(COc2ccc(Cl)cc2)n1-c1ccccc1 | 65.8 | > 100 | > 100 | – | > 100 | > 100 | > 100 | > 100
Cc1ccc(N=NC(=O)NNc2ccc(C)cc2Br)c(Br)c1 | > 100 | 31.3 | 63 | – | 48.3 | 60.4 | > 100 | 74
CC(C)(C)OC(=O)NC(Cc1ccc(OC(C)(C)C)cc1)C(=O)N[C@H]1CC[C@H](C(=O)O)C1 (some centres undefined) | – | > 100 | > 100 | > 100 | > 100 | > 100 | > 100 | > 100
CN(C)/C=N/c1cc(=O)n(C)c(=O)n1C | > 100 | > 100 | > 100 | > 100 | > 100 | > 100 | > 100 | > 100
O=[N+]([O-])c1ccc(C2=NOC(c3ccccc3)N2C23CC4CC(CC(C4)C2)C3)cc1 (centres undefined) | 3.23 | > 100 | > 100 | 52.6 | 58 | 37.8 | – | 95
C=CC(=O)C#Cc1cnc(OC)nc1OC | 21.1 | 42.2 | 3.25 | > 88.3 | 40.5 | 4.13 | > 58.9 | > 100
CNc1ccc(C)cc1S(=O)(=O)c1ccccc1[N+](=O)[O-] | – | > 100 | – | > 100 | > 100 | > 100 | > 100 | > 100
Cn1c(=O)oc2cc(C(O)CN3CCN(Cc4ccc5c(c4)OCO5)CC3)ccc21 (centres undefined) | > 100 | > 100 | > 100 | – | – | > 100 | > 100 | > 100
NC(=S)NN=Cc1ccccc1OCc1cccc(COc2ccccc2C=NNC(N)=S)n1 | > 100 | > 100 | > 100 | > 100 | > 100 | > 100 | 46.3 | > 45.6
CC(O)C1(O)C(O)CC(OC2c3cc4c(c(O)c3[C@@H]3C[C@@]2(C)OC32C=c3cc[nH]c3=N2)C(=O)c2cccc(O)c2C4=O)OC1C (some centres undefined) | 5.51 | 2.84 | 3.07 | 5.87 | 3.41 | 2.67 | 11.3 | 8.8
COC(=O)c1ccccc1C1CN=NC12Cc1cc3c(cc1C2=O)CCC3 (centres undefined) | > 100 | > 100 | 61.5 | > 100 | > 100 | > 100 | > 100 | > 100
CC(=O)n1nc(-c2[nH]c(C)c(-c3nn(C(C)=O)c(=S)o3)c2C)oc1=S | > 100 | > 100 | > 100 | > 100 | > 100 | > 100 | > 100 | > 100
CC(=O)OC[C@@]1(C)[C@@H]2[C@@H]3[C@@]4(CO[C@]3(C)C(=O)[C@@]3(OC(C)=O)C[C@H](C)[C@H](OC(C)=O)[C@@H]3[C@H]4OC(C)=O)[C@H](OC(=O)c3ccccc3)C[C@@H]21 | > 100 | > 100 | > 100 | > 100 | > 100 | – | > 100 | > 100
C=C1[C@@H](OC(C)=O)/C=C/C2C3C(=O)[C@@](C)(OC(C)=O)[C@H]([C@H](OC(C)=O)[C@]4(O)[C@@H](C)C(=O)O[C@H]4[C@H]1Cl)[C@@]23C (some centres undefined) | > 100 | > 100 | – | > 100 | > 100 | > 100 | > 100 | > 100
COC(=O)NCCc1[nH]nc2c1C(=O)C=C(Nc1ccccc1OC)C2=O | 94.6 | 40.3 | 52.7 | 99.7 | 35.1 | 55.1 | > 100 | > 100
